“And” between values parts separate entries of the source, which are not always exact repeats. Equal values may be shown once.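 These data come from cells grown in 96-well plates and exposed to compound for 48 hours at five concentrations. GI50 = concentration required for 50% inhibition of growth. TGI marks complete inhibition of growth.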
Legend:
Experiment in all cases: DTP human tumour cell line panel, 48 h
[1] = test system: OVCAR-4 ovarian
[2] = test system: SN12C renal
[3] = test system: TK-10 renal
[4] = test system: NCI-H522 lung
[5] = test system: T-47D breast
[6] = test system: SF-539 CNS
[7] = test system: RPMI-8226 leukemia
[8] = test system: HL-60(TB) leukemia
[9] = test system: MDA-MB-231 breast
[10] = test system: DU-145 prostate

Compound	TGI [1]	TGI [2]	TGI [3]	TGI [4]	TGI [5] [µM]	TGI [6]	TGI [7]	TGI [8]	TGI [9]	TGI [10]	GI50 [3] [µM]	GI50 [5] [µM]	GI50 [6] [µM]	GI50 [7] [µM]	GI50 [8] [µM]	GI50 [9] [µM]	GI50 [10] [µM]
COc1ccc2c(c1)CCC(CN1CCN(CCOC(c3ccccc3)c3ccccc3)CC1)C2O (stereo unspecified)	33.2 µM	26.8 µM	28.6 µM	31 µM	47.8	26.4 µM	35.3 µM	15.2 µM	29.7 µM	38.9 µM							
Cc1ccc2nc(Nc3ccccc3C)c(Nc3ccccc3C)nc2c1	> 100 µM	> 100 µM	> 92.7 µM	35.9 µM	> 100	> 100 µM	> 100 µM	> 74.6 µM	> 100 µM	> 100 µM							
N#Cc1ccnc(C(=O)N2CCCC2C(=O)O)c1 (stereo unspecified)	> 100 µM	> 100 µM	> 100 µM	> 100 µM	> 100	> 100 µM	> 100 µM	> 100 µM	> 100 µM	> 100 µM							
Fc1cccc(F)c1C1SCc2nc3cc(Cl)ccc3n21 (stereo unspecified)	> 100 µM	> 100 µM	> 100 µM	> 100 µM	> 100	> 100 µM	69.2 µM	41.3 µM	> 100 µM	> 100 µM							
CSc1ncnc2c1cnn2Cc1cn(COCC(O)CO)nn1 (stereo unspecified)	> 100 µM	> 100 µM	> 100 µM	44.6 µM	> 100	> 100 µM	> 100 µM	> 100 µM	> 100 µM	> 100 µM							
O=C(O)C12C3C4(C(=O)O)C1C1(C(=O)O)C2C3(C(=O)O)C41 (stereo unspecified)	> 100 µM	> 100 µM	> 100 µM	> 100 µM	> 100	> 100 µM	> 100 µM	> 100 µM	> 100 µM	> 100 µM							
C/C(=C\CO)CC[C@@H]1[C@@]2(C)CCCC(C)(C)[C@@H]2CC[C@@]1(C)O	34.2 µM	33.8 µM	31.3 µM	31.4 µM	51.3	32.4 µM	36.5 µM	45.7 µM	31 µM	34.3 µM							
Cc1nc2ccccc2n1Cc1ccc(NC(=S)Nc2ccccc2)cc1	> 100 µM	> 100 µM	> 100 µM	> 100 µM	> 100	> 100 µM	> 100 µM	> 100 µM	> 100 µM	> 100 µM							
COc1ccc(C(=C2C(=O)OC(=O)C2=C(C)C)c2ccc(OC)cc2)cc1	92.5 µM	> 100 µM	> 100 µM	55.7 µM	> 100	> 100 µM	> 100 µM	84.3 µM	> 100 µM	> 100 µM							
OC(CCN1CCN(CCOC(c2ccc(F)cc2)c2ccc(F)cc2)CC1)c1ccc(Br)cc1 (stereo unspecified)	13.9 µM	7.12 µM	20.9 µM	16.4 µM	13.7	5.15 µM	6.93 µM	11.2 µM	19.9 µM	17.4 µM							
Brc1ccc(/C(N=N/C(=N\Sc2ccccc2)c2ccc(Br)cc2)=N/Sc2ccccc2)cc1	> 100 µM	> 100 µM	> 100 µM	> 100 µM	> 100	> 100 µM	> 100 µM	> 100 µM	> 100 µM	> 100 µM							
COc1cc2c3cc1Oc1cc(ccc1O)C[C@@H]1c4c(cc(OC)c(O)c4Oc4ccc(cc4)C[C@@H]3[N+](C)(C)CC2)CC[N+]1(C)C	> 100 µM	> 100 µM	> 100 µM	> 100 µM	71.2	28.3 µM	> 100 µM	> 100 µM	> 100 µM	> 100 µM							
C[C@@H](CCO)OC1OC(COC(=O)C(C)(C)C)C(OC(=O)C(C)(C)C)C(OC(=O)C(C)(C)C)C1OC(=O)C(C)(C)C (stereo partly specified)	> 100 µM	> 100 µM	> 100 µM	95.7 µM	> 100	> 100 µM	81.8 µM	62.5 µM	25.9 µM	> 100 µM							
O=C1CCC(CCc2nc3ccccc3[nH]2)(c2ccccc2)C(=O)N1 (stereo unspecified)	> 100 µM	> 100 µM	> 100 µM	> 100 µM	> 100	> 100 µM	> 100 µM	> 100 µM	> 100 µM	> 100 µM							
O=C(O)CCSc1ncnc2nc[nH]c12	> 100 µM	> 100 µM	> 100 µM	> 100 µM	> 100	> 100 µM	> 100 µM	> 100 µM	> 100 µM	> 100 µM							
C=CCN(c1cc(OC)c2[nH]c(C(=O)O)c(C)c2c1[N+](=O)[O-])S(C)(=O)=O	> 100 µM	> 100 µM	> 100 µM	> 100 µM	> 100	> 100 µM	> 100 µM	> 100 µM	> 100 µM	> 100 µM							
O=C(CCl)Nc1ccc(C(=O)N/N=C/c2ccc(Cl)cc2)cc1	4.48 µM and 4.43 µM	9.71 µM and 7.07 µM	3.91 µM and 29.5 µM	3.6 µM and 3.61 µM		3.29 µM and 4.35 µM	6.54 µM and 32.5 µM	6.51 µM and 3.77 µM	3.68 µM and 0.417 µM	8.44 µM and 27 µM	1.83	0.195	1.75	9.09	1.19	0.198	13.5
CC1OC2OC3C(OCC(O)C3O)OC(=O)[C@]34CCC(C)(C)CC3C3=CCC5[C@@]6(C)C[C@H](O)[C@H](OC7OC(CO)C(O)C(O)C7OC7OC(COC(=O)CC(C)(O)CC(=O)OC1C(OC1OC(CO)C(O)C(O)C1O)C2O)C(O)C(O)C7O)[C@@](C)(CO)C6CC[C@@]5(C)[C@]3(C)CC4 (stereo partly specified)	16.1 µM	14.8 µM	7.92 µM	5.89 µM	12.6	15.5 µM	10.2 µM	3.13 µM	16.4 µM	8.51 µM							
O=C1CCCC2=C1CC1=C(CCCC1=O)N2c1ccc(-c2ccccc2)cc1	> 100 µM	> 100 µM	> 100 µM	> 100 µM	> 100	> 100 µM	> 100 µM	> 100 µM	> 100 µM	> 100 µM							
Brc1ccc2[nH]cc(-c3csc(-c4c[nH]c5ccc(Br)cc45)n3)c2c1	7.59 µM	10.3 µM	8.19 µM	3.39 µM	12.2	2.9 µM	3.4 µM	12.7 µM	3.38 µM	6.89 µM							
COC(=O)[C@@H]1[C@H]2CC[C@]3(C)[C@@H](OC(C)=O)CC[C@H]3[C@@H]2CC[C@H]1C1(C)SCCS1	75.2 µM	37 µM	> 100 µM	56.7 µM	56.8	> 100 µM	43.4 µM	36.8 µM	62.1 µM	> 100 µM							
CCOC(=O)C(NC(=O)CC)(Nc1ccccc1F)C(F)(F)F (stereo unspecified)	> 100 µM	> 100 µM	> 100 µM	> 100 µM	> 100	> 100 µM	> 100 µM	> 100 µM	> 100 µM	> 100 µM							
O=C1c2cccnc2C(=O)c2c1nc1ccccc1c2-c1ccc2c3c(nc4ccccc42)C(=O)c2cccnc2-c13	14 µM	4.06 µM	19.1 µM	4.58 µM	19.4	7.49 µM	7.14 µM	5.42 µM	9.49 µM	1.34 µM							

Reference: PubChem BioAssay (NCI)
